The source of these data is ChEMBL document CHEMBL1782045, “Discovery, synthesis, and investigation of the antitumor activity of novel piperazinylpyrimidine derivatives” (Eur J Med Chem, 2011).

In one series the test system is RPMI-8226. Put plainly: Growth inhibition of human RPMI8226 cells after 48 hrs by sulforhodamine B assay. Format: functional. Particulars: RPMI-8226, 48 h. A general note: Sulforhodamine B stains cellular protein and so reports cell mass.
In the next series the test system is NCI-H23. Put plainly: Growth inhibition of human NCI-H23 cells after 48 hrs by sulforhodamine B assay. To be noted: NCI-H23, 48 h. In kind it is functional.
Series [1] deals with Mast/stem cell growth factor receptor Kit (Homo sapiens) (UniProt P10721). Put plainly: Binding affinity to human KIT at 10 uM incubated for 1 hr by kinase binding assay relative to untreated control.
A further series concerns BT-549. Put plainly: Growth inhibition of human BT549 cells after 48 hrs by sulforhodamine B assay. In kind it is functional. To be noted: BT-549, 48 h.
In a further series the test system is MDA-MB-468. Put plainly: Growth inhibition of human MDA-MB-468 cells after 48 hrs by sulforhodamine B assay. Format: functional. To be noted: MDA-MB-468, 48 h.
Series [2] deals with Mast/stem cell growth factor receptor Kit (Homo sapiens) (UniProt P10721). Put plainly: Inhibition of human KIT using gamma-33P-ATP as substrate assessed as enzyme functional activity at 1 uM by scintillation counting relative to untreated control. More on the design: scale not given: the % may be the effect or the level left.
The test system of series [3] is Platelet-derived growth factor receptor alpha (Homo sapiens), P16234 [D842V]. Put plainly: Inhibition of human PDGFRA D842V using gamma-33P-ATP as substrate assessed as enzyme functional activity at 1 uM by scintillation counting relative to untreated control. More on the design: scale not given: the % may be the effect or the level left.
Series [4] relates to SF-295. Put plainly: Cytotoxicity against human SF295 cells after 48 hrs by sulforhodamine B assay. Format: cell-based. To be noted: sf-295, 48 h.
A further series has as its system MOLT-4. Put plainly: Growth inhibition of human MOLT4 cells after 48 hrs by sulforhodamine B assay. In kind it is functional. Particulars: MOLT-4, 48 h.
Another series deals with HOP-92. Put plainly: Growth inhibition of human HOP92 cells after 48 hrs by sulforhodamine B assay. Format: functional. To be noted: HOP-92, 48 h.
Another series has as its system M14. Put plainly: Growth inhibition of human M14 cells after 48 hrs by sulforhodamine B assay. In kind it is functional. To be noted: M14, 48 h.
Another series concerns OVCAR-8. Put plainly: Growth inhibition of human OVCAR8 cells after 48 hrs by sulforhodamine B assay. To be noted: OVCAR-8, 48 h. Format: functional.
Series [5] concerns the target T1, Receptor-type tyrosine-protein kinase FLT3 (Homo sapiens, UniProt P36888). Put plainly: Binding affinity to human FLT3 incubated for 1 hr by kinase binding assay.
Another series relates to CAKI-1. Put plainly: Growth inhibition of human Caki1 cells after 48 hrs by sulforhodamine B assay. Format: functional. To be noted: CAKI-1, 48 h.
A further series relates to UO-31. Put plainly: Growth inhibition of human UO31 cells after 48 hrs by sulforhodamine B assay. Format: functional. Particulars: UO-31, 48 h.
For the next series, the system named is PC-3. Put plainly: Growth inhibition of human PC3 cells after 48 hrs by sulforhodamine B assay. To be noted: PC-3, 48 h. Format: functional.
A further series deals with CCRF-CEM. Put plainly: Cytotoxicity against human CCRF-CEM cells after 48 hrs by sulforhodamine B assay. In kind it is cell-based.
Series [6] concerns the target T1, Receptor-type tyrosine-protein kinase FLT3. Put plainly: Inhibition of human FLT3 using gamma-33P-ATP as substrate by scintillation counting.
Series [7] deals with SF-295. Put plainly: Growth inhibition of human SF295 cells after 48 hrs by sulforhodamine B assay. In kind it is functional. Particulars: SF-295, 48 h.
The test system of the next series is OVCAR-4. Put plainly: Growth inhibition of human OVCAR4 cells after 48 hrs by sulforhodamine B assay. To be noted: OVCAR-4, 48 h. Format: functional.

Mast/stem cell growth factor receptor Kit (Homo sapiens), sequence (P10721 whole entry): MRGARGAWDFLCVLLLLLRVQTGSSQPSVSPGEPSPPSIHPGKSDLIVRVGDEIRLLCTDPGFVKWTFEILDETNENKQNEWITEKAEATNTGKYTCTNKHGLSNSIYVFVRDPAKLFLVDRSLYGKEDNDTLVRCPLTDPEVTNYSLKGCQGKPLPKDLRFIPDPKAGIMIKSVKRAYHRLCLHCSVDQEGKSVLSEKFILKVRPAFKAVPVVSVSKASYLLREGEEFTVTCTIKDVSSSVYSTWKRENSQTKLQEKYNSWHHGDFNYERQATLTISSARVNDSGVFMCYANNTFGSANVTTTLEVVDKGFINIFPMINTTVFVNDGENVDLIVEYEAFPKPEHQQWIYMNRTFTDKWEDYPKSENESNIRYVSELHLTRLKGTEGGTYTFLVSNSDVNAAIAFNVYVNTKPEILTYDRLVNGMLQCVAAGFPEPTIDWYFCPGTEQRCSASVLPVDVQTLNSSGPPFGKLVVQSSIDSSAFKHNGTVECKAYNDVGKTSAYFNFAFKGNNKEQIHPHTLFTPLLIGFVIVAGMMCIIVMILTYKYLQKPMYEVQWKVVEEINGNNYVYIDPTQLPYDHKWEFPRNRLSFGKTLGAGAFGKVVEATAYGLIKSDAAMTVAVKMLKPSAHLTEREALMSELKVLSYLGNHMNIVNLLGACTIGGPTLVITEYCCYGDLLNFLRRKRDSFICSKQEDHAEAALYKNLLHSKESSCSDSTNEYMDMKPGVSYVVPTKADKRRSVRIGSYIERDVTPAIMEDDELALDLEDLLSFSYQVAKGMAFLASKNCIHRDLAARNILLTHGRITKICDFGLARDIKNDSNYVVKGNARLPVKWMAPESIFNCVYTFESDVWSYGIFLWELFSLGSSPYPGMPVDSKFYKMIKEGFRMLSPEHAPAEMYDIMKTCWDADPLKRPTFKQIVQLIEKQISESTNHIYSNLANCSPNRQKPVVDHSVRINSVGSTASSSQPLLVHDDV
T1 sequence (P36888 whole entry): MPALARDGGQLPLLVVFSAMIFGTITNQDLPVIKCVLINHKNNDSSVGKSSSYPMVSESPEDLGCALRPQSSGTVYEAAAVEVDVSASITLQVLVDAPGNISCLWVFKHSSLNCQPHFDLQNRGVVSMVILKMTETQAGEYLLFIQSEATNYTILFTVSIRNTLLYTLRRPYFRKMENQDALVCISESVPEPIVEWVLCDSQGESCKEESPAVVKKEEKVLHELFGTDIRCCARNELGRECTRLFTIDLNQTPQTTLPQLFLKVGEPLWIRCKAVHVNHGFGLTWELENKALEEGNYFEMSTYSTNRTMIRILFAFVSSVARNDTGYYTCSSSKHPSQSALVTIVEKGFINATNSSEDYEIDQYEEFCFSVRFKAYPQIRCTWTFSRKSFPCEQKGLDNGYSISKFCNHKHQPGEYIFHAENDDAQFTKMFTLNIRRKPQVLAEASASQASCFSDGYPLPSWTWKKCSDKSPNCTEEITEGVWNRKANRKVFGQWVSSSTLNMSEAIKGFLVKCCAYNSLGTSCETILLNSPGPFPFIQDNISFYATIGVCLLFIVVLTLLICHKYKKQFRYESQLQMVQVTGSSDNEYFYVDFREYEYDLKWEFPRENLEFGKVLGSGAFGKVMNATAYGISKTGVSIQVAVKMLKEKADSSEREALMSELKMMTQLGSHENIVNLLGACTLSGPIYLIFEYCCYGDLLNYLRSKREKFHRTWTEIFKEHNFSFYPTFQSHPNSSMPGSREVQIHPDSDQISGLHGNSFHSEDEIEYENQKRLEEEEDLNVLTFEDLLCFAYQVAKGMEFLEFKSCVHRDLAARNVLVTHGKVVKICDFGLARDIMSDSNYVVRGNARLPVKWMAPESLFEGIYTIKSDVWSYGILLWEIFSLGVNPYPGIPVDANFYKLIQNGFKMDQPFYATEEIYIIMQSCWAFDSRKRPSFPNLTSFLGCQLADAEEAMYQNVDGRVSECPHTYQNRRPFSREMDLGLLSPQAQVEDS
Platelet-derived growth factor receptor alpha (Homo sapiens), P16234 [D842V], sequence (P16234 whole entry D842V): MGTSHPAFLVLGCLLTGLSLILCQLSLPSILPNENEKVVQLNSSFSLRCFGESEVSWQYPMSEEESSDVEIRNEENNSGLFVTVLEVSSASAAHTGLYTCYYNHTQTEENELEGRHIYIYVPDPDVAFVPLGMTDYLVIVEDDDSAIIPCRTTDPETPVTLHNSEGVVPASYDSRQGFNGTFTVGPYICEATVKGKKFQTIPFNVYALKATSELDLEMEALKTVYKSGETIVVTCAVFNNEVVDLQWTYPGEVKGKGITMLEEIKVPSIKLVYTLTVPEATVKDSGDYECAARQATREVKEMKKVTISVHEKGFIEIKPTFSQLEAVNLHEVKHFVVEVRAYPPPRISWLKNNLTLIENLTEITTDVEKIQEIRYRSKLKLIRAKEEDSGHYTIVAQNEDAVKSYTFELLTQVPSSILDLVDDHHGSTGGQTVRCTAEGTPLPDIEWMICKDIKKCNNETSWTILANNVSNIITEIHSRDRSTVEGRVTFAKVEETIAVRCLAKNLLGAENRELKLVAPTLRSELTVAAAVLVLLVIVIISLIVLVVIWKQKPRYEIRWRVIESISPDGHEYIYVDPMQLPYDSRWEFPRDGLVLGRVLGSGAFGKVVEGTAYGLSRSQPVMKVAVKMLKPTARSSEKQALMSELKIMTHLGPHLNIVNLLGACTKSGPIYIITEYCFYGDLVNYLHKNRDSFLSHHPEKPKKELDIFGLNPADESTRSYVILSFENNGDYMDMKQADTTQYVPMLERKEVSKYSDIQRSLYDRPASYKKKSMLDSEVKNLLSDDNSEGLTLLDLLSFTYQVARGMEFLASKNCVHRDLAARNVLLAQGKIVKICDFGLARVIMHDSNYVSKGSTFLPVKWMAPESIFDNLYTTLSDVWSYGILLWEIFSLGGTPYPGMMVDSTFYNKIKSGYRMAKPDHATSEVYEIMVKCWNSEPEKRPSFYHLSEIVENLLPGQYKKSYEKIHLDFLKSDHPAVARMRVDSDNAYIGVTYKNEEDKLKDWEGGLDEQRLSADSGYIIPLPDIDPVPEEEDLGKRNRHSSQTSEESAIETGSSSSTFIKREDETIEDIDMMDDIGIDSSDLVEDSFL

As a reminder, the TGI is the concentration giving total growth inhibition. In general, LC50 refers to the concentration that kills 50% of the test population. With `O=C(c1cccc(Nc2ncnc3ccccc23)c1)N1CCN(c2ncc(Cc3ccccc3)cn2)CC1`, the TGI is 0.6 µM in the series with RPMI-8226, 2.69 µM in the series on NCI-H23, 1.74 µM in the series on BT-549 and 3.47 µM with MDA-MB-468. Moreover, the results for the Activity in [1], in [2] and in series [3] were above 50%, 100% and 96%, respectively. Moreover, the LC50 in the series with SF-295 [4] was above 100 µM.
A word on the Kd: it is the free concentration of one partner at which half of the binding sites on the other are occupied at equilibrium, for simple one-to-one binding. The term IC50 denotes the concentration that gives 50% inhibition. Take `c1ccc(Cc2cnc(N3CCN(c4ncnc5ccccc45)CC3)nc2)cc1`: the TGI with MOLT-4 was found to be 40.6 µM; in the series with RPMI-8226, 21.8 µM; in the series on HOP-92, 24.2 µM; in the series with NCI-H23, 30.8 µM; in the series on M14, 26.3 µM; in the series with OVCAR-8, 25.6 µM. The TGI was 39.3 µM in the series on CAKI-1, 38.4 µM with UO-31, above 100 µM in the series on PC-3 and 18.4 µM with BT-549. Besides, the Kd in [5] turned out to be 0.46 µM. The compound also showed an LC50 in the series with CCRF-CEM above 100 µM. In addition, the IC50 in series [6] is 6.69 µM.
As to `CCc1cnc(N2CCN(C(=O)c3ccc(CNc4ncnc5ccccc45)cc3)CC2)nc1`, the TGI was 80.1 µM with HOP-92; 23.1 µM in the series on SF-295 [7]; 32.7 µM with M14; 58.8 µM in the series with OVCAR-4; above 100 µM with OVCAR-8; 94.8 µM with CAKI-1. Moreover, the figures for the TGI with UO-31 and in the series with PC-3 were 60.5 µM and above 100 µM, respectively. For the same compound, the figures for the Activity in series [1], in series [2] and in [3] were above 50%, 100% and 100%, respectively. The LC50 with CCRF-CEM and with SF-295 [4] was above 100 µM each time.
